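Growth conditions: 96-well plates. Treatment: test compound, 48 hours, 5 concentrations. Analysis: linear interpolation between bracketing concentrations; unreached endpoints set to highest concentration. GI50: concentration for 50% inhibition of growth.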 Calls of active or inactive are those of the source. Cut-off read from the data, not from the text of the source: active = GI50 up to about 1.1 µM and inactive = higher.
Assays:
Assay in all cases: inhibition of tumour cell growth, NCI panel, 48 h
A498 = tested on: A498
CCRF-CEM = tested on: CCRF-CEM
COLO 205 = tested on: COLO 205
EKVX = tested on: EKVX
HCT-116 = tested on: HCT-116
HOP-62 = tested on: HOP-62
HOP-92 = tested on: HOP-92
KM12 = tested on: KM12
LOX IMVI = tested on: LOX IMVI
MOLT-4 = tested on: MOLT-4
Malme-3M = tested on: Malme-3M
NCI-H226 = tested on: NCI-H226
NCI-H23 = tested on: NCI-H23
OVCAR-4 = tested on: OVCAR-4
OVCAR-8 = tested on: OVCAR-8
SK-MEL-5 = tested on: SK-MEL-5
SN12C = tested on: SN12C
SNB-75 = tested on: SNB-75
NCI-H522 = tested on: NCI-H522

Measured: GI50

Nc1nc(Cl)cc(NCCCCO)n1
inactive: A498 > 100 µM | CCRF-CEM > 100 µM | COLO 205 > 100 µM | EKVX > 100 µM | HCT-116 > 100 µM | HOP-62 > 10 µM | HOP-92 > 100 µM | KM12 > 100 µM | LOX IMVI > 100 µM | MOLT-4 > 100 µM | Malme-3M > 100 µM | NCI-H226 > 100 µM | NCI-H23 > 100 µM | OVCAR-4 > 100 µM | OVCAR-8 > 100 µM | SK-MEL-5 > 100 µM | SN12C > 100 µM | SNB-75 65.3 µM

Cc1ccc(NC(=O)C2C(=O)N(c3ccc(C)c(C)c3)C(=O)/C2=N\NC(N)=S)cc1C (configuration not stated)
inactive: CCRF-CEM 47.4 µM | EKVX > 100 µM | HCT-116 > 100 µM | HOP-92 > 100 µM | KM12 > 100 µM | LOX IMVI > 100 µM | MOLT-4 42.6 µM | Malme-3M > 100 µM | NCI-H226 > 100 µM | NCI-H23 > 100 µM | NCI-H522 50.2 µM | SN12C 53.2 µM | SNB-75 > 100 µM

CCOC(=O)CC1(c2cccc3ccccc23)OC(=O)c2ccccc21 (configuration not stated)
inactive: A498 23.6 µM | CCRF-CEM 43.1 µM | COLO 205 30.4 µM | EKVX 63.2 µM | KM12 40.5 µM | LOX IMVI 60.4 µM | MOLT-4 25.4 µM | Malme-3M 27.5 µM | NCI-H226 67 µM | NCI-H23 20.3 µM | NCI-H522 24.1 µM | OVCAR-4 40.4 µM | OVCAR-8 45.5 µM | SK-MEL-5 21.3 µM | SN12C 43.1 µM | SNB-75 14 µM

CCC1NC(/N=N/c2ccc([N+](=O)[O-])cc2)(P(=O)(OC(C)C)OC(C)C)OC1=O (configuration not stated)
inactive: A498 > 100 µM | CCRF-CEM > 100 µM | COLO 205 > 100 µM | EKVX > 100 µM | HCT-116 > 100 µM | HOP-62 > 100 µM | HOP-92 > 100 µM | KM12 > 100 µM | MOLT-4 > 100 µM | Malme-3M > 100 µM | NCI-H23 > 100 µM | NCI-H522 > 100 µM | OVCAR-4 > 100 µM | OVCAR-8 > 100 µM | SK-MEL-5 > 100 µM | SN12C > 100 µM | SNB-75 23.6 µM

C[C@]12CCC3[C@@H](C[C@H]4OC(=O)[C@@]35CCC(=O)C=C45)C1CCC2=O (some centres not stated)
inactive: CCRF-CEM > 100 µM | COLO 205 > 100 µM | EKVX > 100 µM | HOP-92 > 100 µM | KM12 > 100 µM | MOLT-4 > 100 µM | Malme-3M > 100 µM | NCI-H226 > 100 µM | NCI-H23 > 100 µM | NCI-H522 > 100 µM | OVCAR-8 > 100 µM | SK-MEL-5 > 100 µM | SN12C > 100 µM

Source: ChEMBL document CHEMBL1201862, “PubChem BioAssay data set” (2004)
